Test results: US20130109017A1, “MULTIPLE MYELOMA PROGNOSIS AND TREATMENT” (University of Utah Research Foundation, priority 2010, published 2013)

Legend:
[1] = tested on: 5TGM1/C57BL/KaLwRij mouse myeloma model; assay: Overall survival of 5TGM1/C57BL/KaLwRij myeloma mice; assay type: in vivo
Protocol: Blood. 114 Abstract 2865 (2009). […] Control animals received injections of PBS.
In this regard, the anti-PTH compound, {[TYR^34]bPTH-(7-34)}, was also tested in the presence or absence of bortezomib and PTH to determine whether myeloma growth and/or bone formation were affected. Similar experiments were performed using carfilzomib as shown below.
C57BL/KaLwRij mice (n=5) were subcutaneously injected carfilzomib (1.5 mg/kg) twice a week. The anti-PTH compound (500 μg/kg) was also administered to the mice 3 days prior and 1 day prior to carfilzomib treatment, where noted. Tumor burden was monitored by measuring IgG2b serum concentration twice a week.

5TGM1 myeloma cells = assay: 5TGM1 myeloma cell proliferation; assay type: cell-based, mouse; conditions: for 5TGM1 cell growth compared to controls: once a day, FIG. 2
Protocol: Blood. 93: 1697-1706 (1999). 5TGM1 cells were grown in Hyclone classical liquid media RPMI 1640 (Thermo Scientific Hyclone, Logan, Utah) supplemented with heat-inactivated fetal bovine serum (Thermo Scientific Hyclone, Logan, Utah) and 1% penicillin-streptomycin solution (GIBCO, Grand Island, N.Y.) at 37° C. in 5% CO2. Additionally, two bortezomib-resistant MM cell lines, RPMI 8226 and ARP1, were generated via a stepwise increase in bortezomib (velcade) concentration.
Initially, 5TGM1 myeloma cells were seeded in 24-well plates (10^5 cells/mL) using RPMI-1640, supplemented with 2% FBS, in the presence or absence of bortezomib (velcade), PTH, and/or {[TYR^34]bPTH-(7-34)}.

[2] = tested on: 5TGM1/C57BL/KaLwRij mouse myeloma model; assay: Serum IgG2b level in 5TGM1/C57BL/KaLwRij myeloma mice; conditions: bortezomib 1 mg/kg, PTH 80 μg/kg; p=0.017, p=0.029, p=0.017 respectively; FIG. 7
Protocol: A preclinical myeloma model was employed to examine the effects of PTH and bortezomib (velcade) on proteasome activity with respect to bone remodeling and MM pathogenesis. As such, myelomatous C57BL/KaLwRij mice were injected with 5TGM1 multiple myeloma cells as described. […] Briefly, 5TGM1 inoculation cultures were harvested, centrifuged, washed twice in 50 mL phosphate-buffered saline (PBS), and resuspended at 5×10^6 cells per mL of PBS. Experimental mice were injected with 100 μl of inoculation culture via tail vein injection using a 27-gauge needle. Control animals received injections of PBS.
Each experimental group included 5 mice, and one week after 5TGM1 cell injection, bortezomib, PTH, and/or {[TYR^34]bPTH-(7-34)} were administered in various combinations. The following groups, each containing five mice, were analyzed: untreated controls; bortezomib-treated mice; PTH treated mice; PTH and bortezomib treated mice; and 5{[TYR^34]bPTH-(7-34)} and bortezomib treated mice.
In accord with the experimental procedure outline above, bortezomib (velcade), at a concentration of 1 mg/kg, was administered to the mice via intraperitoneal injection alone, or in combination with PTH or the anti-PTH compound, twice a week (FIG. 6). PTH was added in a similar fashion, once-daily, alone, or in combination with bortezomib, at a concentration of 80 μg/kg. […]

[3] = tested on: bortezomib-resistant RPMI 8226 MM cell line; assay: IC50 of bortezomib in bortezomib-resistant RPMI 8226 cells; assay type: cell-based; conditions: RPMI8226 bortezomib-resistant cells
Protocol: 5TGM1 myeloma cells (Noboru et al., A multiresponse parathyroid hormone assay: an inhibitor has agonist properties in vivo. American Physiological Society. E589-95 (1983)) were initially derived from the myeloma cell line 5T33, which were obtained from C57BL/KaLwRij mice. See Dallas et al., Ibandronate Reduces Osteolytic Lesions but not Tumor Burden in a Murine Model of Myeloma Bone Disease. Blood. 93: 1697-1706 (1999). 5TGM1 cells were grown in Hyclone classical liquid media RPMI 1640 (Thermo Scientific Hyclone, Logan, Utah) supplemented with heat-inactivated fetal bovine serum (Thermo Scientific Hyclone, Logan, Utah) and 1% penicillin-streptomycin solution (GIBCO, Grand Island, N.Y.) at 37° C. in 5% CO2. Additionally, two bortezomib-resistant MM cell lines, RPMI 8226 and ARP1, were generated via a stepwise increase in bortezomib (velcade) concentration.

Molecule: CC(C)C[C@H](NC(=O)[C@H](CCc1ccccc1)NC(=O)CN1CCOCC1)C(=O)N[C@@H](Cc1ccccc1)C(=O)N[C@@H](CC(C)C)C(=O)[C@@]1(C)CO1 [carfilzomib]
- survival compared to controls ([1]; carfilzomib 1.5 mg/kg subcutaneous twice a week, p=0.012, FIG. 8): increased survival

Molecule: {[TYR^34]bPTH-(7-34)} (FMHNLGKHLSSMERVEWLRKKLQDVHNY; Parathyroid hormone; UniProt P01268 38-65, looked up, variant F34Y) [anti-PTH, analog of PTH, antagonist of PTH]
- effect on 5TGM1 cell survival (5TGM1 myeloma cells; anti-PTH alone at 100 nM, 500 nM and 1 μM, p=0.1, FIG. 3): did not have an effect

Molecule: CC(C)C[C@H](NC(=O)[C@H](Cc1ccccc1)NC(=O)c1cnccn1)B(O)O [bortezomib]
- 5TGM1 cell proliferation compared to controls (5TGM1 myeloma cells; bortezomib alone at 5 nM or 10 nM, every other day, p=0.01 at 5 nM, p=0.001 at 10 nM, FIG. 1): concentration dependent reduction in 5TGM1 cell proliferation
- serum IgG level compared to controls [2]: significant inhibition
- IC50 [3]: 250 nM
- increased survival versus control mice ([1]; bortezomib 1 mg/kg intraperitoneal twice a week): 40%
- maximum survival ([1]; bortezomib 1 mg/kg intraperitoneal twice a week, control mice maximum five weeks): up to seven
- survival compared to controls ([1]; bortezomib 1 mg/kg intraperitoneal twice a week, p=0.044, FIG. 6): prolonged survival
- survival compared to mice treated with bortezomib and the anti-PTH compound ([1]; bortezomib 1 mg/kg, PTH 80 μg/kg, p=0.044 (bortezomib), p=0.047 (bortezomib and PTH)): significantly longer period of time

B1: parathyroid hormone (peptide, UniProt P01270 32-115, looked up)
Parathyroid hormone: SVSEIQLMHNLGKHLNSMERVEWLRKKLQDVHNFVALGAPLAPRDAGSQRPRKKEDNVLVESHEKSLGEADKADVNVLTKAKSQ
modifications: Parathyroid hormone
notes: 84 amino acid polypeptide secreted by the parathyroid glands
- 5TGM1 cell growth compared to controls (5TGM1 myeloma cells; PTH alone 10 nM, p=0.1): not a significant difference
- 5TGM1 cell growth compared to controls (5TGM1 myeloma cells; PTH alone 50 nM, p=0.001): statistically significant decrease in cell growth
- 5TGM1 cell growth compared to controls (5TGM1 myeloma cells; PTH alone 100 nM, p=0.001): statistically significant decrease in cell growth
- serum IgG level compared to controls [2]: significant inhibition
